In US8642801B2 (BHI Limited Partnership, priority 2003, dated 2014):

What follows are compounds tested against T1, NAC peptide (Homo sapiens, UniProt P37840) (assay: Binding to NAC peptide by electrospray mass spectrometry). Settings: 5:1 ratio (20 μM NAC: 100 μM test compound or 40 μM NAC: 200 μM test compound), 6.6% EtOH, pH 7.4; bound complex peak area / unbound NAC peak area.
T1 construct: NAC is a 35 amino acid long peptide with highly hydrophobic stretches
Protocol: The ability of the compounds of the present invention to bind to NAC peptide in aqueous solution was evaluated. The binding ability correlates to the intensities of the peptide-compound complex peaks observed by the Electrospray Mass Spectrum. Millipore distilled deionized water was used to prepare all aqueous solutions. For pH determination a Beckman Φ36 pH meter fitted with a Corning Semi-Micro Combination pH Electrode was employed.
The optimal cone voltage was determined to be 20V.
Mass spectrometry—Mass spectrometric analysis was performed using a Waters ZQ 4000 mass spectrometer equipped with a Waters 2795 sample manager. MassLynx 4.0 (earlier by MassLynx 3.5) was used for data processing and analysis. Test compounds were mixed with disaggregated peptides in aqueous media (6.6% EtOH) at a 5:1 ratio (20 μM NAC: 100 μM of test compound or 40 μM NAC:200 μM of test compound). The pH of the mixture was adjusted to 7.4 (±0.2) using 0.1% NaOH (3-5 μL). Periodically, NAC peptide solution at 20 μM or 40 μM was also prepared in the same fashion and run as control. The spectra were obtained by introducing the solutions to the electrospray source by direct infusion using a syringe pump at a flow rate of 25 μl/min, and scanning from 100 to 2100 Da in the positive mode. The scan time was 0.9 sec per scan with an inter-scan delay of 0.1 sec and the run time was 5 min for each sample. All the mass spectra were sum of 300 scans. The desolvation and source temperature was 70° C. and the cone and capillary voltage were maintained at 20 V and 3.2 kV respectively.
The total area under the peaks for the bound NAC-compound complex divided by total area under the peaks for unbound NAC was determined for each compound tested.

SMILES | NAC peptide Binding Strength
NCCOS(=O)(=O)O [NH2CH2CH2OSO3H] | − (− = None; when the total binding is between 30% and 0%)
O=S(=O)([O-])OCCCOS(=O)(=O)[O-].[Na+].[Na+] [NaO3SOCH2CH2CH2OSO3Na] | − (− = None; when the total binding is between 30% and 0%)
O=S(=O)([O-])CCCCS(=O)(=O)[O-].[Na+].[Na+] [NaO3SCH2(CH2)2CH2SO3Na] | − (− = None; when the total binding is between 30% and 0%)
NCCCOS(=O)(=O)[O-].[Na+] [H2NCH2CH2CH2OSO3Na] | ++ (++ = Moderate; when the total binding is between 120% and 70%)
CC(C)(C)NCCCS(=O)(=O)O [drawing 487] | ++ (++ = Moderate; when the total binding is between 120% and 70%)
NCCCCS(=O)(=O)O | + (+ = Weak; when the total binding is between 70% and 30%)
NCCS(=O)(=O)O [H2NCH2CH2SO3H] | + (+ = Weak; when the total binding is between 70% and 30%)
O=S(=O)(O)CC(O)CNC1CCCCC1 (stereo not drawn) [drawing 490] | +++ (+++ = Strong; when the total binding is 120% and higher)
O=S(=O)(O)CCCNC1C2CC3CC(C2)CC1C3 (stereo not drawn) [drawing 488] | ++ (++ = Moderate; when the total binding is between 120% and 70%)
